The values that follow come from patent US20230037538A1, “ANTI-ALS COMPOUNDS” (Takeda Pharmaceutical Company Limited, priority 2021, published 2023).

Common to all, as to type: cell-based, human
One assay deals with FTD affected fibroblasts. As to the kind of experiment: Stress granule assay in FTD affected fibroblasts (TDP-43 / HuR immunostaining after arsenite stress). Conditions: vehicle (DMSO) alone set at 100, lower = fewer TDP-43 aggregates; for activity at 1 µM: Homo sapiens, Fibroblast, 1 μM compound, read-out: Normalized average number of TDP-43 positive HuR aggregates per cell at 1 μM; for Normalized average number of TDP-43 positive HuR aggregates per cell at 1.5 μM: 1.5 μM compound. As to the method:
In this assay, TDP-43 aggregates in stress granules were quantified after 24 hrs of drug treatment followed by 90 minutes of 100 μM arsenite stress.
On day 1 20,000 patient derived fibroblasts per well were seeded in a 24 well glass bottom plate or 6000 cells per well in a 96 well plate. On day 2 compounds were added at the desired final concentration in fresh media to the respective wells. On day 3 sodium arsenite was added at a final concentration of 500 μM. Incubated at 37° C. for 60 mins. On day 9 wells were washed with PBS and fixed cells using 4% para formaldehyde (in PBS, prepared freshly, methanol free) for 15 mins at room temperature. Washed with PBS, blocked and permeabilized cells with 1% BSA+1% saponin (prepared in PBS) for 1 hour. For Immunostaining primary antibodies were made in 1% BSA (in PBS) and incubated overnight at 4° C. Rabbit polyclonal TDP-43 C-terminal antibody (Proteintech 12892-1-AP)-1:350; mouse monoclonal HuR antibody (Santa Cruz sc-5261)-1:500. On the next day, added the following secondary antibodies Alexa 594 anti-rabbit (Thermofisher Scientific) and Alexa 488 anti-mouse (Thermofisher Scientific) (1:500) in 1% BSA (in PBS) and kept in dark for 1-2 hours at room temperature. Washed and added DAPI in PBS for nuclear staining. The images were analyzed by the open source image analysis software CellProfiler 2.1.1 (offered by Broad Institute of Harvard and MIT—www.cellprofiler.org). This software contains various modules which can be used to analyze images in different ways.
The lower the number, the fewer the TDP-43 aggregates compared to vehicle (DMSO) alone, which is set at 100.

The subject of the next assay is Mutant TDP-43 fibroblast. As to the kind of experiment: Nucleocytoplasmic assay (NCA) in patient fibroblast, mutant TDP-43 fibroblast. The following applies: compound at 1 μM; DMSO-treated cell set as 100. The method, then:
(§1) Skin-derived fibroblasts cells from Amnyotrophic Lateral Sclerosis (ALS) and Frontotemporal Degeneration (FTD) patients or affected individual acquired from the National Institute of Neurological Disorders and Stroke (NINDS #ND32947, ND41006, ND42717) were grown in HyClone DMEM High Glucose (GE Healthcare Life Sciences) supplemented with 15% FBS and 1% NEAA (Non-Essential Amino Acids), at 37° C. in a humidified atmosphere of 5% CO2. On day 1600 cells per well were seeded in a 96 well glass bottom plate or 1200 cells per well in a 24 well glass bottom plate. Incubated for 4 days, at 37° C. in a humidified atmosphere of 5% CO2, allowed cells to grow for 4 days. On day added compounds including vehicle control at the desired final concentration in fresh media to the respective wells, allowed cells to grow for an additional 4 days. On day 9 washed wells with PBS and fixed cells using 4% para formaldehyde (in PBS, prepared freshly, methanol free) for 15 mins at room temperature. Washed with PBS, blocked and permeabilized cells with 1% BSA+1% saponin (prepared in PBS) for 1 hour. For immunostaining the following primary antibodies were added in 1% BSA (in PBS) and incubated overnight at 4° C. Rabbit polyclonal TDP-43 C-terminal antibody (Proteintech 12892-1-AP)-1:350; mouse monoclonal HuR antibody (Santa Cruz sc-5261)-1:500. On the next day, added the following secondary antibodies Alexa 594 anti-rabbit (Thermofisher Scientific) and Alexa 488 anti-mouse (Thermofisher Scientific) (1:500) in 1% BSA (in PBS) and kept it in dark for 1-2 hours at room temperature. Wash and add DAPI in PBS for nuclear staining.
(§2) The immuno-stained cells were imaged with Nikon Ti inverted fluorescence microscope having CSU-22 spinning disk confocal and EMCCD camera. Plan Apo 20×/0.75 objective and NIS-Elements AR software were used for image acquisition. At least 15 images per well were taken. The exposure times for TDP-43 and HuR remained constant across one experiment. Each image acquired (in .nd format) was exported into three individual channel images (for DAPI, TDP-43, HuR) in .tiff format. The images were analyzed by the open source image analysis software Cell Profiller to calculate the signal intensities of TDP-43 present in the nucleus and cytoplasm in each cell. The DAPI image was used to count the total number of cells. The TDP-43 and HuR images are used to count the number of cells containing TDP-43 and/or HuR nuclear staining.
(§3) The nucleus/cytoplasm ratio of intensities of TDP-43 in each compound-treated (at 1 μM) cells comparing to DMSO-treated cell (which is set as 100) were shown.

The next assay concerns Mutant VCP fibroblast. Description: Nucleocytoplasmic assay (NCA) in patient fibroblast, mutant VCP fibroblast. Conditions: compound at 1 μM; DMSO-treated cell set as 100. As to the method: as §1, §2, §3
In assay [1] the test system is Fibroblast from FTD affected individual. Description: Nucleocytoplasmic assay (NCA) in patient fibroblast, fibroblast from FTD affected individual. The following applies: compound at 1 μM; DMSO-treated cell set as 100. As to the method:
as §1, §2, §3

Turning to `COc1cc2c(cc1OCc1ccccc1)CCNC2/C=C/c1cnc2ncccn12` (centres unmarked) [AA, (E)-6-(benzyloxy)-1-(2-(imidazo[1,2-a]pyrimidin-3-yl)vinyl)-7-methoxy-1,2,3,4-tetrahydroisoquinoline], the activity at 1 µM with FTD affected fibroblasts came out at 85%.

Consider `COc1cc2c(cc1OCc1ccccc1)CCNC2/C=C/c1cnc2ncc(F)cn12` (centres unmarked) [AC, (E)-6-(benzyloxy)-1-(2-(6-fluoroimidazo[1,2-a]pyrimidin-3-yl)vinyl)-7-methoxy-1,2,3,4-tetrahydroisoquinoline], for which, in the assay with FTD affected fibroblasts, the activity at 1 µM came out at 85.8%.

Turning to `COc1cc2c(cc1OCc1ccccc1)CCNC2/C=C/c1cnc2ncc(C(F)(F)F)cn12` (centres unmarked) [AD, (E)-6-(benzyloxy)-7-methoxy-1-(2-(6-(trifluoromethyl)imidazo[1,2-a]pyrimidin-3-yl)vinyl)-1,2,3,4-tetrahydroisoquinoline], in the assay on FTD affected fibroblasts, the “Normalized average number of TDP-43 positive HuR aggregates per cell at 1.5 μM” value (“Normalized average number … per cell at 1.5 μM” for short) is recorded as 71.00 and the activity at 1 µM is 83%.

Take `COc1cnc2ncc(/C=C/C3NCCc4cc(OCc5ccccc5)c(OC)cc43)n2c1` (centres unmarked) [AE, (E)-6-(benzyloxy)-7-methoxy-1-(2-(6-methoxyimidazo[1,2-a]pyrimidin-3-yl)vinyl)-1,2,3,4-tetrahydroisoquinoline]: the “Normalized average number … per cell at 1.5 μM” value in the assay with FTD affected fibroblasts is listed as 73.75.

Turning to `COc1cc2c(cc1OCc1ccccc1)CCNC2/C=C/c1cnc2ncc(C)cn12` (centres unmarked) [AF, (E)-6-(benzyloxy)-7-methoxy-1-(2-(6-methylimidazo[1,2-a]pyrimidin-3-yl)vinyl)-1,2,3,4-tetrahydroisoquinoline], the “Normalized average number … per cell at 1.5 μM” value with FTD affected fibroblasts is 65.5.

Consider `CCOC(=O)c1cnc2ncc(/C=C/C3NCCc4cc(OCc5ccccc5)c(OC)cc43)n2c1` (centres unmarked) [AG, Ethyl (E)-3-(2-(6-(benzyloxy)-7-methoxy-1,2,3,4-tetrahydroisoquinolin-1-yl)vinyl)imidazo[1,2-a]pyrimidine-6-carboxylate], for which the activity at 1 µM in the assay with FTD affected fibroblasts came out at 87%.

For the compound `COc1cc2c(cc1OCc1ccccc1)CCNC2/C=C/c1cnc2ncc(C(=O)O)cn12.Cl` (centres unmarked) [AH, (E)-3-(2-(6-(benzyloxy)-7-methoxy-1,2,3,4-tetrahydroisoquinolin-1-yl)vinyl)imidazo[1,2-a]pyrimidine-6-carboxylic acid], in the assay with FTD affected fibroblasts, the “Normalized average number … per cell at 1.5 μM” value worked out at 71.4.

For `COc1cc(C)c(/C=C/C2NCCc3cc(OCc4ccccc4)c(OC)cc32)cc1OC` (centres unmarked) [Example 1, 6-(benzyloxy)-1-[(E)-2-(4,5-dimethoxy-2-methylphenyl)ethenyl]-7-methoxy-1,2,3,4-tetrahydroisoquinoline], in the assay with FTD affected fibroblasts, the activity at 1 µM was 67%. Moreover, the “nucleus/cytoplasm ratio of intensities of TDP-43, Mutant TDP-43 fibroblast” value in the assay with Mutant TDP-43 fibroblast is given as 147. The “nucleus/cytoplasm ratio of intensities of TDP-43, Mutant VCP fibroblast” value (from here on “nucleus/cytoplasm ratio … Mutant VCP fibroblast”) in the assay with Mutant VCP fibroblast is given as 153. The “nucleus/cytoplasm ratio of intensities of TDP-43, Fibroblast from FTD affected individual” value in assay [1] is reported as 148.

Regarding `COc1cc2c(cc1OCc1ccccc1)CCNC2/C=C/c1cc2c(cc1C)OCCO2` (centres unmarked) [Example 4, 6-(benzyloxy)-7-methoxy-1-[(E)-2-(7-methyl-2,3-dihydro-1,4-benzodioxin-6-yl)ethenyl]-1,2,3,4-tetrahydroisoquinoline], in the assay on FTD affected fibroblasts, the activity at 1 µM was 70.9%. Besides, in the assay with Mutant TDP-43 fibroblast, the “nucleus/cytoplasm ratio of intensities of TDP-43, Mutant TDP-43 fibroblast” value worked out at 130.

On to `COc1cc2c(cc1OCc1ccccc1)CCNC2/C=C/c1cc2c(cc1C)OCO2` (centres unmarked) [Example 5, 6-(benzyloxy)-7-methoxy-1-[(E)-2-(6-methyl-2H-1,3-benzodioxol-5-yl)ethenyl]-1,2,3,4-tetrahydroisoquinoline], for which, in the assay with FTD affected fibroblasts, the activity at 1 µM is 83.3%. Further, in the assay on Mutant TDP-43 fibroblast, the “nucleus/cytoplasm ratio of intensities of TDP-43, Mutant TDP-43 fibroblast” value is recorded as 137. The “nucleus/cytoplasm ratio … Mutant VCP fibroblast” value with Mutant VCP fibroblast is 179. The “nucleus/cytoplasm ratio of intensities of TDP-43, Fibroblast from FTD affected individual” value in assay [1] came to 139.

Consider `COc1cnc2c(c1)c(/C=C/C1NCCc3cc(OCc4ccccc4)c(OC)cc31)cn2C` (centres unmarked) [Example 7, 6-(benzyloxy)-7-methoxy-1-[(E)-2-(5-methoxy-1-methyl-1H-pyrrolo[2,3-b]pyridin-3-yl)ethenyl]-1,2,3,4-tetrahydroisoquinoline], for which, in the assay on FTD affected fibroblasts, the activity at 1 µM worked out at 40%. The “nucleus/cytoplasm ratio of intensities of TDP-43, Mutant TDP-43 fibroblast” value in the assay on Mutant TDP-43 fibroblast worked out at 143. In addition, the “nucleus/cytoplasm ratio … Mutant VCP fibroblast” value in the assay with Mutant VCP fibroblast came out at 191. The “nucleus/cytoplasm ratio of intensities of TDP-43, Fibroblast from FTD affected individual” value in assay [1] amounted to 175.

As to `COc1cc2c(cc1OCc1ccccc1)CCNC2/C=C/c1ccc(-c2cncnc2)cc1Cl` (centres unmarked) [Example 9, 6-(benzyloxy)-1-{(E)-2-[2-chloro-4-(pyrimidin-5-yl)phenyl]ethenyl}-7-methoxy-1,2,3,4-tetrahydroisoquinoline], the “nucleus/cytoplasm ratio … Mutant VCP fibroblast” value in the assay with Mutant VCP fibroblast was determined as 200.

With `COc1cc2c(cc1OCc1ccccc1)CCNC2/C=C/c1cn(C)c2nccc(OC)c12` (centres unmarked) [Example 26, 6-(benzyloxy)-7-methoxy-1-[(E)-2-(4-methoxy-1-methyl-1H-pyrrolo[2,3-b]pyridin-3-yl)ethenyl]-1,2,3,4-tetrahydroisoquinoline], the activity at 1 µM with FTD affected fibroblasts stood at 59%. The “nucleus/cytoplasm ratio … Mutant VCP fibroblast” value in the assay with Mutant VCP fibroblast worked out at 256. The “nucleus/cytoplasm ratio of intensities of TDP-43, Fibroblast from FTD affected individual” value in assay [1] worked out at 146.
